Experimental data published in publication PMC4800810 (Biomacromolecules, 2015).

What was measured:
solubility in water = assay type: physicochemical; conditions: 6BIO by itself, result in words
[1] = 24 h organ biodistribution in mice with femoral fracture; assay type: in vivo, CD4 Swiss mice; conditions: i.v.

- solubility in water (solubility in water): only sparingly soluble in water
- drug uptake in the fractured femur over the healthy femur ([1]; 125I-labelled analogues): no statistical difference
- accumulation in the lungs, liver, and spleen ([1]; 125I-labelled, result in words): high accumulation
Substance: 6’-bromoindirubin-3’-oxime [6BIO]
